What all share (experiment): relative viability (nuclei count vs DMSO), 5 days (fraction); higher = more cells survive
Compound in the test “TPCA-1 + Navitoclax”: C1=CC(=CC=C1C2=CC(=C(S2)NC(=O)N)C(=O)N)F [TPCA-1] + CC1(C)CCC(c2ccc(Cl)cc2)=C(CN2CCN(c3ccc(C(=O)NS(=O)(=O)c4ccc(N[C@H](CCN5CCOCC5)CSc5ccccc5)c(S(=O)(=O)C(F)(F)F)c4)cc3)CC2)C1 [Navitoclax] (partner 0.5 µM)
A digest of the protocol:
(§1)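 Relative viability is defined as nuclei in treated wells over nuclei in vehicle wells. Duplicate plates were run and medians reported. Lung cancer cell lines in 1536-well plates were dosed by pin tool one day after seeding, with one drug or with a fixed anchor-drug dose plus five library-drug doses (not always all listed) in √10 steps, and nuclei were counted after 5 days.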

Compound in test [1]: C[C@]12O[C@H](C[C@]1(O)CO)n1c3ccccc3c3c4c(c5c6ccccc6n2c5c31)CNC4=O [Lestaurtinib] + CCNC(=O)c1noc(-c2cc(C(C)C)c(O)cc2O)c1-c1ccc(CN2CCOCC2)cc1 [Luminespib] (partner 0.01 µM)
The method in brief:
as §1

Compound in test [2]: C[C@]12O[C@H](C[C@]1(O)CO)n1c3ccccc3c3c4c(c5c6ccccc6n2c5c31)CNC4=O [Lestaurtinib] + CC(=O)c1c(C)c2cnc(Nc3ccc(N4CCNCC4)cn3)nc2n(C2CCCC2)c1=O [Palbociclib] (partner 0.5 µM)
The method in brief:
as §1

Compound in the test “Lestaurtinib + Lapatinib”: C[C@]12O[C@H](C[C@]1(O)CO)n1c3ccccc3c3c4c(c5c6ccccc6n2c5c31)CNC4=O [Lestaurtinib] + CS(=O)(=O)CCNCc1ccc(-c2ccc3ncnc(Nc4ccc(OCc5cccc(F)c5)c(Cl)c4)c3c2)o1 [Lapatinib] (partner 2 µM)
The method in brief: as §1

Among the data in the supplement of paper PMC10307832 are relative viability values, retold here.

With LOU-NH91, the relative viability in the test with TPCA-1 + Navitoclax (first compound 0.04 µM) was determined as 0.822; in the test with TPCA-1 + Navitoclax (first compound 0.1265 µM) it was 0.585; in the test with TPCA-1 + Navitoclax (first compound 0.4 µM), 0.692; with TPCA-1 + Navitoclax (first compound 1.265 µM) it was 0.65; with TPCA-1 + Navitoclax (first compound 4 µM), 0.507; in test [1] (first compound 0.005 µM), 0.341. The relative viability was 0.262 in test [1] (first compound 0.01581 µM); 0.254 in test [1] (first compound 0.05 µM); 0.301 in test [1] (first compound 0.1581 µM); 0.224 in test [1] (first compound 0.5 µM); 0.567 in test [2] (first compound 0.005 µM); 0.524 in test [2] (first compound 0.01581 µM). The relative viability is 0.586 in test [2] (first compound 0.05 µM); 0.558 in test [2] (first compound 0.1581 µM); 0.522 in test [2] (first compound 0.5 µM); 0.768 with Lestaurtinib + Lapatinib (first compound 0.005 µM); 0.721 in the test with Lestaurtinib + Lapatinib (first compound 0.01581 µM); 0.638 with Lestaurtinib + Lapatinib (first compound 0.05 µM). In addition, the relative viability with Lestaurtinib + Lapatinib (first compound 0.1581 µM) amounted to 0.562; with Lestaurtinib + Lapatinib (first compound 0.5 µM), 0.404.

Turning to LU99A, the relative viability in the test with TPCA-1 + Navitoclax (first compound 0.04 µM) was 0.976; with TPCA-1 + Navitoclax (first compound 0.1265 µM), 0.77; in the test with TPCA-1 + Navitoclax (first compound 0.4 µM), 0.802; with TPCA-1 + Navitoclax (first compound 1.265 µM), 0.766; with TPCA-1 + Navitoclax (first compound 4 µM), 0.473; in test [1] (first compound 0.005 µM), 0.235. For the same cell line, the relative viability in test [1] (first compound 0.01581 µM) worked out at 0.245; in test [1] (first compound 0.05 µM) it was 0.221; in test [1] (first compound 0.1581 µM), 0.249; in test [1] (first compound 0.5 µM), 0.185; in test [2] (first compound 0.005 µM) it was 0.371; in test [2] (first compound 0.01581 µM), 0.392. For the same cell line, the relative viability was determined as 0.285 in test [2] (first compound 0.05 µM); 0.271 in test [2] (first compound 0.1581 µM); 0.185 in test [2] (first compound 0.5 µM); 0.839 in the test with Lestaurtinib + Lapatinib (first compound 0.005 µM); 0.627 with Lestaurtinib + Lapatinib (first compound 0.01581 µM); 0.446 in the test with Lestaurtinib + Lapatinib (first compound 0.05 µM). In addition, the results for the relative viability with Lestaurtinib + Lapatinib (first compound 0.1581 µM) and in the test with Lestaurtinib + Lapatinib (first compound 0.5 µM) were 0.38 and 0.213, respectively.

In the case of LXF-289, the relative viability in the test with TPCA-1 + Navitoclax (first compound 0.04 µM) amounted to 0.937; in the test with TPCA-1 + Navitoclax (first compound 0.1265 µM), 0.907; in the test with TPCA-1 + Navitoclax (first compound 0.4 µM) it was 0.949; with TPCA-1 + Navitoclax (first compound 1.265 µM), 0.915; with TPCA-1 + Navitoclax (first compound 4 µM), 0.839; in test [1] (first compound 0.005 µM) it was 0.833. Besides, the relative viability in test [1] (first compound 0.01581 µM) turned out to be 0.746; in test [1] (first compound 0.05 µM) it was 0.421; in test [1] (first compound 0.1581 µM), 0.33; in test [1] (first compound 0.5 µM), 0.293; in test [2] (first compound 0.005 µM), 0.624; in test [2] (first compound 0.01581 µM) it was 0.633. For the same cell line, the relative viability in test [2] (first compound 0.05 µM) is 0.443; in test [2] (first compound 0.1581 µM), 0.49; in test [2] (first compound 0.5 µM), 0.234; with Lestaurtinib + Lapatinib (first compound 0.005 µM), 0.867; with Lestaurtinib + Lapatinib (first compound 0.01581 µM) it was 0.917; with Lestaurtinib + Lapatinib (first compound 0.05 µM), 0.713. The relative viability with Lestaurtinib + Lapatinib (first compound 0.1581 µM) turned out to be 0.769; in the test with Lestaurtinib + Lapatinib (first compound 0.5 µM) it was 0.375.

In the case of NCI-H23, the relative viability with TPCA-1 + Navitoclax (first compound 0.04 µM) is 0.823; with TPCA-1 + Navitoclax (first compound 0.1265 µM), 0.742; with TPCA-1 + Navitoclax (first compound 0.4 µM) it was 0.687; with TPCA-1 + Navitoclax (first compound 1.265 µM), 0.616; with TPCA-1 + Navitoclax (first compound 4 µM) it was 0.694; in test [1] (first compound 0.005 µM), 0.241. Also, the relative viability is 0.217 in test [1] (first compound 0.01581 µM); 0.242 in test [1] (first compound 0.05 µM); 0.184 in test [1] (first compound 0.1581 µM); 0.188 in test [1] (first compound 0.5 µM); 0.578 in test [2] (first compound 0.005 µM); 0.624 in test [2] (first compound 0.01581 µM). Also, the relative viability in test [2] (first compound 0.05 µM) came out at 0.527; in test [2] (first compound 0.1581 µM) it was 0.5; in test [2] (first compound 0.5 µM) it was 0.274; with Lestaurtinib + Lapatinib (first compound 0.005 µM), 1.21; with Lestaurtinib + Lapatinib (first compound 0.01581 µM), 1.19; with Lestaurtinib + Lapatinib (first compound 0.05 µM) it was 0.776. Further, the relative viability with Lestaurtinib + Lapatinib (first compound 0.1581 µM) was found to be 0.888; with Lestaurtinib + Lapatinib (first compound 0.5 µM) it was 0.212.

Consider NCI-H322M, for which the relative viability came to 1.26 with TPCA-1 + Navitoclax (first compound 0.04 µM); 1.07 with TPCA-1 + Navitoclax (first compound 0.1265 µM); 1.18 with TPCA-1 + Navitoclax (first compound 0.4 µM); 1.13 in the test with TPCA-1 + Navitoclax (first compound 1.265 µM); 1.17 with TPCA-1 + Navitoclax (first compound 4 µM); 0.773 in test [1] (first compound 0.005 µM). In addition, the relative viability was found to be 0.713 in test [1] (first compound 0.01581 µM); 0.449 in test [1] (first compound 0.05 µM); 0.337 in test [1] (first compound 0.1581 µM); 0.329 in test [1] (first compound 0.5 µM); 0.473 in test [2] (first compound 0.005 µM); 0.497 in test [2] (first compound 0.01581 µM). Moreover, the relative viability in test [2] (first compound 0.1581 µM) was 0.515; in test [2] (first compound 0.5 µM) it was 0.519; with Lestaurtinib + Lapatinib (first compound 0.005 µM) it was 0.555; with Lestaurtinib + Lapatinib (first compound 0.01581 µM), 0.567; with Lestaurtinib + Lapatinib (first compound 0.05 µM), 0.416; in the test with Lestaurtinib + Lapatinib (first compound 0.1581 µM), 0.424. In addition, in the test with Lestaurtinib + Lapatinib (first compound 0.5 µM), the relative viability was 0.525.

As for NCI-H460, the relative viability with TPCA-1 + Navitoclax (first compound 0.04 µM) stood at 1.24; with TPCA-1 + Navitoclax (first compound 0.1265 µM) it was 1.04; with TPCA-1 + Navitoclax (first compound 0.4 µM) it was 1; with TPCA-1 + Navitoclax (first compound 1.265 µM), 1.1; with TPCA-1 + Navitoclax (first compound 4 µM), 0.709; in test [1] (first compound 0.005 µM), 0.0333. The relative viability is 0.0274 in test [1] (first compound 0.01581 µM); 0.0352 in test [1] (first compound 0.05 µM); 0.0238 in test [1] (first compound 0.1581 µM); 0.0199 in test [1] (first compound 0.5 µM); 0.151 in test [2] (first compound 0.005 µM); 0.231 in test [2] (first compound 0.01581 µM). For the same cell line, the relative viability in test [2] (first compound 0.05 µM) amounted to 0.112; in test [2] (first compound 0.1581 µM), 0.116; in test [2] (first compound 0.5 µM), 0.116; with Lestaurtinib + Lapatinib (first compound 0.005 µM), 0.869; with Lestaurtinib + Lapatinib (first compound 0.01581 µM), 1.33; with Lestaurtinib + Lapatinib (first compound 0.05 µM) it was 0.23. Moreover, the relative viability in the test with Lestaurtinib + Lapatinib (first compound 0.1581 µM) was 0.415; in the test with Lestaurtinib + Lapatinib (first compound 0.5 µM), 0.0473.

On to NCI-H520, for which the relative viability was 1.17 with TPCA-1 + Navitoclax (first compound 0.04 µM); 0.96 with TPCA-1 + Navitoclax (first compound 0.1265 µM); 1.1 with TPCA-1 + Navitoclax (first compound 0.4 µM); 0.977 in the test with TPCA-1 + Navitoclax (first compound 1.265 µM); 1.08 with TPCA-1 + Navitoclax (first compound 4 µM); 0.226 in test [1] (first compound 0.005 µM). The relative viability amounted to 0.202 in test [1] (first compound 0.01581 µM); 0.234 in test [1] (first compound 0.05 µM); 0.217 in test [1] (first compound 0.1581 µM); 0.244 in test [1] (first compound 0.5 µM); 0.262 in test [2] (first compound 0.005 µM); 0.234 in test [2] (first compound 0.01581 µM). Besides, the relative viability in test [2] (first compound 0.05 µM) is 0.201; in test [2] (first compound 0.1581 µM), 0.171; in test [2] (first compound 0.5 µM) it was 0.158; with Lestaurtinib + Lapatinib (first compound 0.005 µM) it was 0.833; with Lestaurtinib + Lapatinib (first compound 0.01581 µM), 1; with Lestaurtinib + Lapatinib (first compound 0.05 µM) it was 0.59. For the same cell line, the relative viability in the test with Lestaurtinib + Lapatinib (first compound 0.1581 µM) stood at 0.48; with Lestaurtinib + Lapatinib (first compound 0.5 µM) it was 0.252.
